Results taken from US8735322B2, “Herbicides” (Syngenta Limited, priority 2008, dated 2014).

Experiments:
Type in all cases: in vivo
Lolium perenne (LOLPE) [1] = assay: Example A post-emergence herbicidal activity, glasshouse pot test; details: 360 h, evaluated 15 days after spraying, read-out: herbicidal damage LOLPE (100=total damage to plant; 0=no damage to plant); for pest or weed control at 125 g/ha: rate 125 g/ha; for pest or weed control at 500 g/ha: rate 500 g/ha
Experimental: (§1) Seeds of a variety of test species were sown in standard soil in pots. After cultivation for one day (pre-emergence) or after 10 days cultivation (post-emergence) under controlled conditions in a glasshouse, the plants were sprayed with an aqueous spray solution derived from the formulation of the technical active ingredient in 0.6 ml acetone and 45 ml formulation solution containing 10.6% Emulsogen EL (Registry number 61791-12-6), 42.2% N-methylpyrrolidone, 42.2% dipropylene glycol monomethyl ether (Registry number 34590-94-8) and 0.2% X-77 (Registry number 11097-66-8). The test plants were then grown in a greenhouse under optimum conditions until, 15 days later for post-emergence and 20 days for pre-emergence, the test was evaluated (100=total damage to plant; 0=no damage to plant). Alopecurus myosuroides (ALOMY), Avena fatua (AVEFA), Lolium perenne (LOLPE), Setaria faberi (SETFA), Digitaria sanguinalis (DIGSA), Echinochloa crus-galli (ECHCG) Post Emergency Activity

Avena fatua (AVEFA) [2] = assay: as above; details: 360 h, evaluated 15 days after spraying, read-out: herbicidal damage AVEFA (100=total damage to plant; 0=no damage to plant); for pest or weed control at 125 g/ha: rate 125 g/ha; for pest or weed control at 500 g/ha: rate 500 g/ha
Experimental: as §1

[3] = tested on: Alopecurus myosuroides (ALOMY); assay: as above; details: 360 h, evaluated 15 days after spraying, read-out: herbicidal damage ALOMY (100=total damage to plant; 0=no damage to plant); for pest or weed control at 125 g/ha: rate 125 g/ha; for pest or weed control at 500 g/ha: rate 500 g/ha
Experimental: as §1

[4] = tested on: Echinochloa crus-galli (ECHCG); assay: as above; details: 360 h, evaluated 15 days after spraying, read-out: herbicidal damage ECHCG (100=total damage to plant; 0=no damage to plant); for pest or weed control at 125 g/ha: rate 125 g/ha; for pest or weed control at 500 g/ha: rate 500 g/ha
Experimental: as §1

[5] = tested on: Digitaria sanguinalis (DIGSA); assay: as above; details: 360 h, evaluated 15 days after spraying, read-out: herbicidal damage DIGSA (100=total damage to plant; 0=no damage to plant); for pest or weed control at 125 g/ha: rate 125 g/ha; for pest or weed control at 500 g/ha: rate 500 g/ha
Experimental: as §1

Setaria faberi (SETFA) [6] = assay: as above; details: 360 h, evaluated 15 days after spraying, read-out: herbicidal damage SETFA (100=total damage to plant; 0=no damage to plant); for pest or weed control at 125 g/ha: rate 125 g/ha; for pest or weed control at 500 g/ha: rate 500 g/ha
Experimental: as §1

Lolium perenne (LOLPE) [7] = assay: Example A pre-emergence herbicidal activity, glasshouse pot test; details: 480 h, rate 500 g/ha, evaluated 20 days later, 100=total damage to plant, 0=no damage to plant
Experimental: as §1, with “Pre-Emergence” for “Post Emergency”

Avena fatua (AVEFA) [8] = assay: as above; details: 480 h, rate 500 g/ha, evaluated 20 days later, 100=total damage to plant, 0=no damage to plant
Experimental: as §1, with “Pre-Emergence” for “Post Emergency”

[9] = tested on: Alopecurus myosuroides (ALOMY); assay: as above; details: 480 h, rate 500 g/ha, evaluated 20 days later, 100=total damage to plant, 0=no damage to plant
Experimental: as §1, with “Pre-Emergence” for “Post Emergency”

[10] = tested on: Echinochloa crus-galli (ECHCG); assay: as above; details: 480 h, rate 500 g/ha, evaluated 20 days later, 100=total damage to plant, 0=no damage to plant
Experimental: as §1, with “Pre-Emergence” for “Post Emergency”

[11] = tested on: Digitaria sanguinalis (DIGSA); assay: as above; details: 480 h, rate 500 g/ha, evaluated 20 days later, 100=total damage to plant, 0=no damage to plant
Experimental: as §1, with “Pre-Emergence” for “Post Emergency”

Setaria faberi (SETFA) [12] = assay: as above; details: 480 h, rate 500 g/ha, evaluated 20 days later, 100=total damage to plant, 0=no damage to plant
Experimental: as §1, with “Pre-Emergence” for “Post Emergency”

Compound	pest or weed control at 125 g/ha (Lolium perenne (LOLPE) [1])	pest or weed control at 125 g/ha (Avena fatua (AVEFA) [2])	pest or weed control at 125 g/ha [3]	pest or weed control at 125 g/ha [4]	pest or weed control at 125 g/ha [5]	pest or weed control at 125 g/ha (Setaria faberi (SETFA) [6])	pest or weed control at 500 g/ha (Lolium perenne (LOLPE) [7])	pest or weed control at 500 g/ha (Avena fatua (AVEFA) [8])	pest or weed control at 500 g/ha [9]	pest or weed control at 500 g/ha [10]	pest or weed control at 500 g/ha [11]	pest or weed control at 500 g/ha (Setaria faberi (SETFA) [12])	pest or weed control at 500 g/ha (Lolium perenne (LOLPE) [1])	pest or weed control at 500 g/ha (Avena fatua (AVEFA) [2])	pest or weed control at 500 g/ha [3]	pest or weed control at 500 g/ha [4]	pest or weed control at 500 g/ha [5]	pest or weed control at 500 g/ha (Setaria faberi (SETFA) [6])
CCc1cc(CC)c(C2=C(O)CC(CC3CCOCC3)CC2=O)c(CC)c1 (stereo not drawn) [Compound A-19]	70%	20%	70%	70%	60%	60%	100%	60%	100%	100%	100%	100%						
Cc1cc(C)c(C2=C(O)CC(C(C)C3CCOCC3)CC2=O)c(C)c1 (stereo not drawn) [Compound A-10]							70%	50%	50%	80%	60%	60%	60%	80%	80%	50%	70%	50%
Cc1ccc(-c2ccc(Cl)cc2)cc1C1=C(O)CC(C(C)C2CCOCC2)CC1=O (stereo not drawn) [Compound A-15]							0%	40%	10%	10%	20%	20%	30%	30%	60%	50%	70%	30%
CCc1cc(C)cc(CC)c1C1=C(O)CC(CC2CCSCC2)CC1=O (stereo not drawn) [Compound A-14]							90%	70%	80%	80%	100%	100%	90%	100%	100%	100%	70%	100%
CCc1ccc(-c2ccc(Cl)cc2)cc1C1=C(O)CC(CC2CCOC2)CC1=O (stereo not drawn) [Compound A-4]							30%	40%	60%	100%	70%	80%	70%	70%	80%	100%	100%	100%
CCc1cc(C)cc(CC)c1C1=C(O)CC(CC2CCS(=O)(=O)CC2)CC1=O (stereo not drawn) [Compound A-17]	90%	100%	90%	100%	80%	50%	100%	100%	100%	100%	100%	100%						
CCc1ccc(-c2ccc(Cl)cc2)cc1C1=C(O)CC(CC2CCOCC2)CC1=O (stereo not drawn) [Compound A-20]	40%	60%	40%	100%	100%	80%	40%	10%	50%	100%	40%	70%						
